Laboratory results taken from EP0364819A2, “LHRH analogs” (The Administrators of The Tulane Educational Fund, priority 1988, dated 1990).

What was measured:
[1] = test system: membrane receptors of human prostate cancer; experiment: Receptor binding to human prostate cancer membranes with 125I-labeled [D-Trp6]LHRH; conditions: first receptor class (high affinity binding sites)
Procedure: (§1) (c)Affinity for peptides to human prostate and breast cancer cell membranes.
(§2) This is determined by using labelled LHRH and [D-Trp⁶]LHRH. The assay is carried out similarly to that described by T. Kadar et al., Proc. Natl. Acad. Sci. USA, 85, 890-894 (1988).

[2] = test system: membrane receptors of Dunning tumor; experiment: Receptor binding to Dunning tumor membranes with 125I-labeled [D-Trp6]LHRH; conditions: first receptor class (high affinity binding sites); rat Dunning tumor
Procedure: as §2

[3] = biological target: T1, membrane receptors of human breast cancer cells (Homo sapiens, UniProt P30968); experiment: Receptor binding to human breast cancer cell membranes with 125I-labeled [D-Trp6]LHRH; conditions: Table 2, antagonistic analogues, high affinity binding sites, ¹²⁵l-labeled [D-Trp⁶]LHRH
T1 construct: human prostate and breast cancer cell membranes; endogenous in cells
T1 sequence (P30968 1-328): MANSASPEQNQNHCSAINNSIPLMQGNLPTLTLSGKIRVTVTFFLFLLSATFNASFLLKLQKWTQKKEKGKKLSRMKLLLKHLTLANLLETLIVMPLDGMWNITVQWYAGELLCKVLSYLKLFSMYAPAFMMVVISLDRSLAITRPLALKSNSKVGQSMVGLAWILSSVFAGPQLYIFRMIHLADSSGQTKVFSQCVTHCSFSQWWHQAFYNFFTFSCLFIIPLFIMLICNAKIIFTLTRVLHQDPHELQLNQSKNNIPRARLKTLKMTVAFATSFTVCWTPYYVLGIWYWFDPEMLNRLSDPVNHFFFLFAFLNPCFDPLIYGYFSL
Procedure: as §1, §2
(§3) Table 2 presents the antiovulatory activity of the claimed compounds having LHRH-inhibiting properties. The inhibitory action was determined in vivo, in 4-day cycling rats as described [A. Corbin and C. W. Beattie, Endocr. Res. Commun., 2, 1-23 (1975)]. Affinities of the claimed compounds to membrane receptors of rat pituitary and human breast cancer cells are also given in Tables 1 and 2 as determined by using [[…],D-Trp⁶]LHRH.

[4] = biological target: T2, membrane receptors of rat pituitary (Rattus norvegicus, UniProt P30969); experiment: Receptor binding to rat pituitary membranes with 125I-labeled [D-Trp6]LHRH; conditions: Table 2, antagonistic analogues; high affinity binding sites; pituitary of male rats; ¹²⁵l-labeled [D-Trp⁶]LHRH
T2 construct: membrane receptors of rat pituitary; from tissue; host or cells: rat pituitary membranes
T2 sequence (P30969 1-327): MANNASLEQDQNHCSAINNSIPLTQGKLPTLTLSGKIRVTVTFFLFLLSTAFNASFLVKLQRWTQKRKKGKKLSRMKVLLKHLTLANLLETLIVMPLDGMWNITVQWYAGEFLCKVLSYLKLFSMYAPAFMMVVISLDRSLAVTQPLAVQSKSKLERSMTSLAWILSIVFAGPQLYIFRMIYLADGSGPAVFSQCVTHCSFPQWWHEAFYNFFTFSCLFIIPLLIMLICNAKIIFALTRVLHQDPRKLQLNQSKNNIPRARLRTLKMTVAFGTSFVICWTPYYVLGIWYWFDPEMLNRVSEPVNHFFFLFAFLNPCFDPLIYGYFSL
Procedure: as §2, §3

4-day cycling rats = experiment: In vivo antiovulatory activity in 4-day cycling rats; conditions: 4-day cyclic rats
Procedure: This activity of the peptides is determined in 4-day-cycling rats as described [A. Corbin and C. W.Beattie, Endocr. Res. Commun. 2, 1-23(1975)].
as §3

[5] = prior art analogues with Chlorambucil as cytotoxic moiety; cited from earlier work

| Compound | Binding affinity, Ka1, for membrane receptors of cancer cells [3] [nM-¹] | Binding affinity, Ka1, for membrane receptors of pituitary [4] [nM-¹] | activities (LHRH agonist or antagonist) [5] | other results |
| --- | --- | --- | --- | --- |
| CC(C)C[C@H](NC(=O)[C@@H](Cc1c[nH]c2ccccc12)NC(=O)[C@H](Cc1ccc(O)cc1)NC(=O)[C@H](CO)NC(=O)[C@H](Cc1c[nH]c2ccccc12)NC(=O)[C@H](Cc1c[nH]cn1)NC(=O)[C@@H]1CCC(=O)N1)C(=O)N[C@@H](CCCNC(=N)N)C(=O)N1CCC[C@H]1C(=O)NCC(N)=O [[D-Trp⁶]-LHRH, reference compound] | – | – | – | Human prostate cancer* Ka1 [1]: 0.04 nM⁻¹; Dunning tumor* Ka1 [2]: 1.87 nM⁻¹ |
| Ac-D-Nal(2)-D-Phe(4Cl)-D-Pal(3)-Ser-Arg-D-Mel-Leu-Arg-Pro-D-Ala-NH₂ [Example II] | 3.967 | 7.190 | – | Human prostate cancer* Ka1 [1]: 0.7 nM⁻¹; Dunning tumor* Ka1 [2]: 1.68 nM⁻¹ |
| Ac-D-Nal(2)-D-Phe(4Cl)-D-Trp-Ser-Arg-D-Lys[(Cu⁺⁺)(POLP)₂(DL-A₂pr)]-Leu-Arg-Pro-D-Ala-NH₂ [Example XXII] | 1.337 | 2.901 | – | Hormonal activity* %Blockade of ovulation (4-day cycling rats; Dose 10 µg/rat): 60% |
| [Chlorambucil-D-Leu²,D-Leu³,D-Ala⁶]LHRH (2-10) | – | – | moderate activities | – |
| [Chlorambucil-D-Phe¹,D-Phe²,D-Trp³ʼ⁶]LHRH | – | – | practically inactive | – |
| [D-Lys(Chlorambucil)⁶] LHRH | – | – | moderate activities | – |

Now from value to compound, other results behind:

| Binding affinity, Ka1, for membrane receptors of cancer cells [3] [nM-¹] | Binding affinity, Ka1, for membrane receptors of pituitary [4] [nM-¹] | Compound | activities (LHRH agonist or antagonist) [5] | other results |
| --- | --- | --- | --- | --- |
| 4.951 | 9.183 | Ac-D-Nal(2)-D-Phe(4Cl)-D-Trp-Ser-Arg-D-Lys[(Cu⁺⁺)(SAL)₂(DL-A₂pr)]-Leu-Arg-Pro-D-Ala-NH₂ [XII] | – | Hormonal activity* %Blockade of ovulation (4-day cycling rats; Dose 3 µg/rat): 20% |
| 4.418 | 8.676 | Ac-D-Nal(2)-D-Phe(4Cl)-D-Trp-Ser-Arg-D-Lys[(Ni⁺⁺)(SAL)₂(DL-A₂pr)]-Leu-Arg-Pro-D-Ala-NH₂ [Example XV] | – | Hormonal activity* %Blockade of ovulation (4-day cycling rats; Dose 3 µg/rat): 20% |
